Results taken from the supplement of paper PMC10307832.

Tests used:
Experiment in all cases: relative viability (nuclei count vs DMSO), 5 days (fraction); higher = more cells survive
Afatinib + Decitabine = compound: CN(C)C/C=C/C(=O)Nc1cc2c(Nc3ccc(F)c(Cl)c3)ncnc2cc1O[C@H]1CCOC1 [Afatinib] + Nc1ncn([C@H]2C[C@H](O)[C@@H](CO)O2)c(=O)n1 [Decitabine] (partner 2 µM)
Method in brief: (§1)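 The day after seeding in 1536-well plates, lung cancer cell lines were treated by pin tool with a single drug, or with a fixed anchor-drug dose together with five library-drug doses (not always all listed) in √10 steps. After 5 days, a combined fix-and-stain solution (final 0.05% Triton X-100, 1% formaldehyde, 1 ug/ml Hoechst) was added. Nuclei counted on 4× images gave relative viability as treated counts over vehicle counts, reported as the median of duplicate plates.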

Afatinib + Crizotinib = compound: CN(C)C/C=C/C(=O)Nc1cc2c(Nc3ccc(F)c(Cl)c3)ncnc2cc1O[C@H]1CCOC1 [Afatinib] + C[C@@H](Oc1cc(-c2cnn(C3CCNCC3)c2)cnc1N)c1c(Cl)ccc(F)c1Cl [Crizotinib] (partner 1 µM)
Method in brief: as §1

Afatinib + Phenformin = compound: CN(C)C/C=C/C(=O)Nc1cc2c(Nc3ccc(F)c(Cl)c3)ncnc2cc1O[C@H]1CCOC1 [Afatinib] + N=C(N)NC(=N)NCCc1ccccc1 [Phenformin] (partner 250 µM)
Method in brief: as §1

Afatinib + Navitoclax = compound: CN(C)C/C=C/C(=O)Nc1cc2c(Nc3ccc(F)c(Cl)c3)ncnc2cc1O[C@H]1CCOC1 [Afatinib] + CC1(C)CCC(c2ccc(Cl)cc2)=C(CN2CCN(c3ccc(C(=O)NS(=O)(=O)c4ccc(N[C@H](CCN5CCOCC5)CSc5ccccc5)c(S(=O)(=O)C(F)(F)F)c4)cc3)CC2)C1 [Navitoclax] (partner 0.5 µM)
Method in brief: as §1

Cell Line	relative viability (Afatinib + Decitabine; first compound 0.005 µM)	relative viability (Afatinib + Decitabine; first compound 0.01581 µM)	relative viability (Afatinib + Decitabine; first compound 0.05 µM)	relative viability (Afatinib + Decitabine; first compound 0.1581 µM)	relative viability (Afatinib + Decitabine; first compound 0.5 µM)	relative viability (Afatinib + Crizotinib; first compound 0.005 µM)	relative viability (Afatinib + Crizotinib; first compound 0.01581 µM)	relative viability (Afatinib + Crizotinib; first compound 0.05 µM)	relative viability (Afatinib + Crizotinib; first compound 0.1581 µM)	relative viability (Afatinib + Crizotinib; first compound 0.5 µM)	relative viability (Afatinib + Phenformin; first compound 0.005 µM)	relative viability (Afatinib + Phenformin; first compound 0.01581 µM)	relative viability (Afatinib + Phenformin; first compound 0.05 µM)	relative viability (Afatinib + Phenformin; first compound 0.1581 µM)	relative viability (Afatinib + Phenformin; first compound 0.5 µM)	relative viability (Afatinib + Navitoclax; first compound 0.005 µM)	relative viability (Afatinib + Navitoclax; first compound 0.01581 µM)	relative viability (Afatinib + Navitoclax; first compound 0.05 µM)	relative viability (Afatinib + Navitoclax; first compound 0.1581 µM)	relative viability (Afatinib + Navitoclax; first compound 0.5 µM)
HCC-366	0.293	0.407	0.383	0.324	0.34	0.746	0.643	0.554	0.428	0.476	0.588	0.61	0.611	0.632	0.595	1.14	1.04	1.18	1	1.06
HCC-827	0.162	0.155	0.178	0.174	0.161	0.169	0.176	0.184	0.184	0.21	0.137	0.119	0.152	0.119	0.137	0.173	0.168	0.157	0.18	0.147
HOP-62	0.252	0.181	0.238	0.193	0.219	1.04	0.883	1.11	1.05	0.969	0.862	0.561	0.748	0.719	0.629	1.3	1.09	1.19	1.11	1.09
LC-2-ad	0.769	0.866	0.786	0.694	0.767	0.566	0.422	0.409	0.382	0.408	0.66	0.514	0.585	0.541	0.52	0.483	0.458	0.419	0.322	0.32
LCLC-97TM1	0.262	0.17	0.234	0.273	0.255	0.491	0.337	0.329	0.242	0.308	0.439	0.398	0.438	0.404	0.391	0.383	0.546	0.411	0.344	0.455
LK-2	0.41	0.258	0.288	0.328	0.301	0.201		0.195	0.234	0.243	0.471	0.306	0.422	0.488	0.574	1.02	0.779	0.868	0.883	0.835
LOU-NH91	0.617	0.672	0.699	0.643	0.697	0.523	0.574	0.69	0.488	0.542	0.342	0.45	0.477	0.394	0.548	0.402	0.39	0.441	0.348	0.402
LU99A	0.903	0.93	0.929	0.873	0.964	0.591	0.54	0.539	0.55	0.525	0.837	0.851	0.891	0.944	0.828	0.859	0.706	0.797	0.793	0.883
LXF-289	0.371	0.356	0.366	0.351	0.365	0.845	0.777	0.793	0.7	0.811	0.492	0.521	0.534	0.468	0.471	0.975	0.885	0.91	0.927	0.963
NCI-H23	0.327	0.314	0.278	0.317	0.309	0.516	0.459	0.612	0.44	0.639	0.847	0.825	0.808	0.772	0.718	0.973	0.843	0.881	0.735	0.814
NCI-H322M	0.637	0.509	0.55	0.502	0.479	0.775	0.676	0.544	0.359	0.293	0.636	0.433	0.535	0.463	0.446	1.28	0.864	0.586	0.405	0.371
NCI-H441	0.241	0.233	0.225	0.277	0.229	0.691	0.789	0.85	0.841	0.652	0.92	0.748	0.916	0.736	0.797	0.904	0.516	0.446	0.399	0.294
NCI-H460	0.446	0.464	0.521	0.526	0.551	0.878	0.748	0.885	0.809	0.875	0.549	0.517	0.536	0.558	0.498	1.21	1.06	1.14	1.18	1.11
NCI-H520	0.539	0.454	0.45	0.483	0.413	1.33	0.851	0.832	0.749	0.737	0.562	0.593	0.689	0.609	0.57	1.21	1.15	1.02	1.1	1.11
NCI-H596	1.02	0.962	1.08	1.1	1.01	0.987	0.866	0.94	0.904	0.921	0.804	0.804	0.729	0.753	0.685	1.01	0.94	1.03	0.815	0.934
NCI-H647	0.459	0.499	0.425	0.315	0.419	1.26	1.13	1.01	1.04	1.19	0.664	0.481	0.57	0.692	0.445	1.09	0.951	1.16	1.13	1.39
